Source: US10099045B2, “Administration of antibiotics and therapeutic agents” (priority 2008, dated 2018)
Several values for one entry are separate records, joined by “and”; a condition that tells them apart may be missing. Equal values may be shown once. Read-outs that look alike come from different tables or passages of the source.

How the values were obtained:
[1] = system: STA 29213 MSSA; test: MIC of Cefazolin, broth dilution method; assay type: cell-based, S. aureus; conditions: for MIC/Cefazolin: single determinations
Source text: (§1) Accordingly, further tests of Cephazolin with a range of different MRSA strains at concentrations well above the dose achievable by IV delivery were made to understand these finding. The Minimum inhibitory concentration (MIC) of Cephazolin with respect to these various strains is reported below in Table 1 in units are in .mu·g/ml of Cefazolin using the broth dilution method. MIC is the lowest concentration of an antimicrobial that will inhibit the visible growth of a microorganism after overnight incubation. STA 29213 is the conventional strain of S. aureus, showing normal sensitivity to Cefazolin with an MIC of 0.5.mu·g/ml.
(§2) The colony count in the last column is just a quality control measure to insure the correct innooculum.

[2] = system: MRSA 116; test: MIC of Cefazolin, broth dilution method; assay type: cell-based, Staphylococcus aureus
Source text: as §1, §2

[3] = system: MRSA 142 ATCC 33591 MRSA; test: MIC of Cefazolin, broth dilution method; assay type: cell-based, Staphylococcus aureus
Source text: as §1, §2

[4] = system: MRSA 143; test: MIC of Cefazolin, broth dilution method; assay type: cell-based, Staphylococcus aureus
Source text: as §1, §2

[5] = system: MRSA 144; test: MIC of Cefazolin, broth dilution method; assay type: cell-based, Staphylococcus aureus
Source text: as §1, §2

[6] = system: MRSA 145; test: MIC of Cefazolin, broth dilution method; assay type: cell-based, Staphylococcus aureus
Source text: as §1, §2

[7] = system: MRSA 146; test: MIC of Cefazolin, broth dilution method; assay type: cell-based, Staphylococcus aureus
Source text: as §1, §2

[8] = system: MRSA 147; test: MIC of Cefazolin, broth dilution method; assay type: cell-based, Staphylococcus aureus
Source text: as §1, §2

[9] = system: MRSA 148; test: MIC of Cefazolin, broth dilution method; assay type: cell-based, Staphylococcus aureus
Source text: as §1, §2

[10] = system: MRSA 149; test: MIC of Cefazolin, broth dilution method; assay type: cell-based, Staphylococcus aureus
Source text: as §1, §2

[11] = system: MRSA 150; test: MIC of Cefazolin, broth dilution method; assay type: cell-based, Staphylococcus aureus
Source text: as §1, §2

[12] = system: MRSA 151; test: MIC of Cefazolin, broth dilution method; assay type: cell-based, Staphylococcus aureus
Source text: as §1, §2

[13] = system: MRSA 152; test: MIC of Cefazolin, broth dilution method; assay type: cell-based, Staphylococcus aureus
Source text: as §1, §2

[14] = system: MRSA 56 (494); test: MIC of Cefazolin, broth dilution method; assay type: cell-based, Staphylococcus aureus
Source text: as §1, §2

[15] = system: Mu 3 MRSA hVISA; test: MIC of Cefazolin, broth dilution method; assay type: cell-based, Staphylococcus aureus; conditions: for MIC/Cefazolin: single determinations
Source text: as §1, §2

[16] = system: Mu 50 MRSA VISA; test: MIC of Cefazolin, broth dilution method; assay type: cell-based, Staphylococcus aureus
Source text: as §1, §2

[17] = system: STA 25923 MSSA; test: MIC of Cefazolin, broth dilution method; assay type: cell-based, Staphylococcus aureus
Source text: as §1, §2

[18] = Adipose tissue and serum concentration after subcutaneous infusion with transcutaneous ultrasound, elective abdominoplasty; conditions: for blood serum concentration: 1 gm subcutaneous plus ultrasound, when surgery was completed about an hour later
Description: A prophylactic dose of the antibiotic Cafazolin was delivered to a patient by the above procedure prior to elective abdominoplasty using the Silberg Tissue Preparation Systems TM Model ME 800 (9801427) Mettler Surgical, Anaheim, Calif.). About 250 cc of prewarmed saline containing 1 gm of Cefazolin was injected under a surgical incision line 201 that was about 5 cm long. Small sample of adipose tissue where taken during the surgical procedure to determine if the Cefazolin would remain above desired concentration reported by Ohge et al., and thus remain sufficiently high through the procedure. Further, blood serum samples were taken during the procedure to determine the potential for a longer term systemic delivery.

[19] = system: methicillin-sensitive Staphylococcus aureus (MSSA), Klebsiella pneumoniae, Escherichia coli, Streptococcus spp.; conditions: 360 MSSA, 204 K. pneumoniae, 314 E. coli, 30 Streptococcus spp. isolates; cited from earlier work
[20] = intravenous bolus 1 g, cited from earlier work
[21] = Staphylococcus aureus, read-out: Median MIC

## Cc1nnc(SCC2=C(C(=O)O)N3C(=O)[C@@H](NC(=O)Cn4cnnn4)[C@H]3SC2)s1 [Cefazolin]
[1]; [21]
  MIC: 0.5 µg/mL
[1]; MSSA strain
  MIC/Cefazolin: 1 µg/mL
[1]; conventional S. aureus strain STA 29213
  MIC/Cefazolin: 0.5 µg/mL
[2]; MRSA 116, single determinations
  MIC/Cefazolin: 512 µg/mL and 256 µg/mL
[2]; Staphylococcus aureus, MRSA 116, read-out: Median MIC
  MIC: 256 µg/mL
[3]; MRSA 142 ATCC 33591, single determinations
  MIC/Cefazolin: 256 µg/mL
[3]; Staphylococcus aureus, MRSA 142 ATCC 33591, read-out: Median MIC
  MIC: 256 µg/mL
[4]; MRSA 143, single determinations
  MIC/Cefazolin: 64 µg/mL and 128 µg/mL
[4]; Staphylococcus aureus, MRSA 143, read-out: Median MIC
  MIC: 128 µg/mL
[5]; MRSA 144, single determinations
  MIC/Cefazolin: 64 µg/mL and 128 µg/mL
[5]; Staphylococcus aureus, MRSA 144, read-out: Median MIC
  MIC: 64 µg/mL
[6]; MRSA 145, single determinations
  MIC/Cefazolin: 128 µg/mL
[6]; Staphylococcus aureus, MRSA 145, read-out: Median MIC
  MIC: 128 µg/mL
[7]; MRSA 146, single determinations
  MIC/Cefazolin: 64 µg/mL and 128 µg/mL
[7]; Staphylococcus aureus, MRSA 146, read-out: Median MIC
  MIC: 64 µg/mL
[8]; MRSA 147, single determinations
  MIC/Cefazolin: 64 µg/mL
[8]; Staphylococcus aureus, MRSA 147, read-out: Median MIC
  MIC: 64 µg/mL
[9]; MRSA 148, single determinations
  MIC/Cefazolin: 256 µg/mL and 128 µg/mL
[9]; Staphylococcus aureus, MRSA 148, read-out: Median MIC
  MIC: 256 µg/mL
[10]; MRSA 149, single determinations
  MIC/Cefazolin: 128 µg/mL
[10]; Staphylococcus aureus, MRSA 149, read-out: Median MIC
  MIC: 128 µg/mL
[11]; MRSA 150, single determinations
  MIC/Cefazolin: 512 µg/mL
[11]; Staphylococcus aureus, MRSA 150, read-out: Median MIC
  MIC: 512 µg/mL
[12]; MRSA 151, single determinations
  MIC/Cefazolin: 128 µg/mL
[12]; Staphylococcus aureus, MRSA 151, read-out: Median MIC
  MIC: 128 µg/mL
[13]; MRSA 152, single determinations
  MIC/Cefazolin: 4 µg/mL and 8 µg/mL
[13]; Staphylococcus aureus, MRSA 152, read-out: Median MIC
  MIC: 4 µg/mL
[14]; [21]
  MIC: 128 µg/mL
[14]; single determinations
  MIC/Cefazolin: 64 µg/mL and 128 µg/mL
[15]; MU 3, most resistant strain
  MIC relative to the dose required for normal strains: about 50 times
[15]; Mu 3 MRSA hVISA
  MIC/Cefazolin: 512 µg/mL
[15]; Mu 3 MRSA hVISA, listed as antibiotic
  MIC/Cefazolin: about 512 μg/ml
[15]; Staphylococcus aureus, Mu 3 MRSA hVISA, read-out: Median MIC
  MIC: 512 µg/mL
[16]; [21]
  MIC: 256 µg/mL
[16]; single determinations
  MIC/Cefazolin: 256 µg/mL
[17]; [21]
  MIC: 0.5 µg/mL
[17]; single determinations
  MIC/Cefazolin: 0.5 µg/mL
[18]
  blood serum concentration: about 10 μg/ml
[18]; listed as antibiotic
  blood serum concentration: less than 10 μg/ml
[18]; human, in vivo
  tissue concentration relative to intravenous administration of Ohge et al.: about 50 times
[18]; human, in vivo, 1 gm
  Kp: < 10
[19]
  tissue level to achieve minimum inhibitory concentrations for 80% (MIC80) of four bacterial species: about 4 μg/ml
[20]; after about 4 hours
  serum concentration: about 10 μg/ml
[20]; after slightly more than 2 hours of surgery
  mean tissue concentration: below 4 μg/ml
[20]; an hour after surgery commenced
  mean tissue concentration: about 10 μg/ml
[20]; an hour after surgery commenced, listed as antibiotic
  mean tissue concentration: 10 µg/mL
[20]; end of the same time period (slightly more than 2 hours)
  serum concentration: ~40000 ng/mL
[20]; start of the same time period (an hour after surgery commenced)
  serum concentration: about 80 μg/ml
